Converted amounts (≈) assume the structure as drawn.
How the values were obtained:
Type in all cases: functional
Staphylococcus aureus [1] = experiment: Antibacterial activity against Staphylococcus aureus clinical isolate assessed as growth inhibition after 16 to 18 hr by NCCLS agar dilution method
Staphylococcus aureus [2] = experiment: Antibacterial activity against Staphylococcus aureus clinical isolate 9 assessed as growth inhibition after 16 to 18 hr by NCCLS agar dilution method
Staphylococcus aureus [3] = experiment: Antibacterial activity against Staphylococcus aureus clinical isolate 6 assessed as growth inhibition after 16 to 18 hr by NCCLS agar dilution method
Staphylococcus aureus [4] = experiment: Bactericidal activity against Staphylococcus aureus clinical isolate 5 after 24 hr; settings: isolate 5, 24 h
Staphylococcus aureus [5] = experiment: Antibacterial activity against Staphylococcus aureus clinical isolate 2 assessed as growth inhibition after 16 to 18 hr by NCCLS agar dilution method
Staphylococcus aureus [6] = experiment: Antibacterial activity against methicillin-resistant Staphylococcus aureus isolate 4 assessed as growth inhibition after 16 to 18 hr by NCCLS agar dilution method
Staphylococcus aureus [7] = experiment: Antibacterial activity against methicillin-resistant Staphylococcus aureus isolate 1 assessed as growth inhibition after 16 to 18 hr by NCCLS agar dilution method
Staphylococcus aureus [8] = experiment: Antibacterial activity against Staphylococcus aureus clinical isolate 5 assessed as growth inhibition after 16 to 18 hr by NCCLS agar dilution method
Staphylococcus aureus [9] = experiment: Bactericidal activity against methicillin-resistant Staphylococcus aureus isolate 2 after 24 hr; settings: isolate 2, 24 h
Staphylococcus aureus [10] = experiment: Antibacterial activity against Staphylococcus aureus clinical isolate 4 assessed as growth inhibition after 16 to 18 hr by NCCLS agar dilution method
Staphylococcus aureus [11] = experiment: Bactericidal activity against Staphylococcus aureus clinical isolate 2 after 24 hr; settings: isolate 2, 24 h
Staphylococcus aureus [12] = experiment: Bactericidal activity against Staphylococcus aureus clinical isolate 6 after 24 hr; settings: isolate 6, 24 h
Staphylococcus aureus [13] = experiment: Antibacterial activity against Staphylococcus aureus clinical isolate 10 assessed as growth inhibition after 16 to 18 hr by NCCLS agar dilution method
Staphylococcus aureus [14] = experiment: Bactericidal activity against methicillin-resistant Staphylococcus aureus isolate 5 after 24 hr; settings: isolate 5, 24 h
Staphylococcus aureus [15] = experiment: Antibacterial activity against methicillin-resistant Staphylococcus aureus isolate 2 assessed as growth inhibition after 16 to 18 hr by NCCLS agar dilution method
Staphylococcus aureus [16] = experiment: Bactericidal activity against Staphylococcus aureus clinical isolate after 24 hr
Staphylococcus aureus [17] = experiment: Antibacterial activity against Staphylococcus aureus clinical isolate 1 assessed as growth inhibition after 16 to 18 hr by NCCLS agar dilution method
Staphylococcus aureus [18] = experiment: Bactericidal activity against methicillin-resistant Staphylococcus aureus after 24 hr
Staphylococcus aureus [19] = experiment: Antibacterial activity against methicillin-resistant Staphylococcus aureus isolate 5 assessed as growth inhibition after 16 to 18 hr by NCCLS agar dilution method
Staphylococcus aureus [20] = experiment: Antibacterial activity against Staphylococcus aureus clinical isolate 7 assessed as growth inhibition after 16 to 18 hr by NCCLS agar dilution method
Staphylococcus aureus [21] = experiment: Antibacterial activity against Staphylococcus aureus clinical isolate 8 assessed as growth inhibition after 16 to 18 hr by NCCLS agar dilution method
Staphylococcus aureus [22] = experiment: Bactericidal activity against methicillin-resistant Staphylococcus aureus isolate 1 after 24 hr; settings: isolate 1, 24 h
Staphylococcus aureus [23] = experiment: Antibacterial activity against Staphylococcus aureus ATCC 25923 assessed as growth inhibition after 16 to 18 hr by NCCLS agar dilution method
Staphylococcus aureus [24] = experiment: Bactericidal activity against Staphylococcus aureus clinical isolate 8 after 24 hr; settings: isolate 8, 24 h
Staphylococcus aureus [25] = experiment: Antibacterial activity against Staphylococcus aureus clinical isolate 3 assessed as growth inhibition after 16 to 18 hr by NCCLS agar dilution method
Staphylococcus aureus [26] = experiment: Bactericidal activity against Staphylococcus aureus clinical isolate 9 after 24 hr; settings: isolate 9, 24 h
Staphylococcus aureus [27] = experiment: Antibacterial activity against methicillin-resistant Staphylococcus aureus isolate 3 assessed as growth inhibition after 16 to 18 hr by NCCLS agar dilution method
Staphylococcus aureus [28] = experiment: Bactericidal activity against methicillin-resistant Staphylococcus aureus isolate 4 after 24 hr; settings: isolate 4, 24 h
Staphylococcus aureus [29] = experiment: Bactericidal activity against Staphylococcus aureus clinical isolate 4 after 24 hr; settings: isolate 4, 24 h
Staphylococcus aureus [30] = experiment: Bactericidal activity against Staphylococcus aureus clinical isolate 7 after 24 hr; settings: isolate 7, 24 h
Staphylococcus aureus [31] = experiment: Bactericidal activity against Staphylococcus aureus clinical isolate 10 after 24 hr; settings: isolate 10, 24 h
Staphylococcus aureus [32] = experiment: Antibacterial activity against methicillin-resistant Staphylococcus aureus assessed as growth inhibition after 16 to 18 hr by NCCLS agar dilution method
Staphylococcus aureus [33] = experiment: Bactericidal activity against Staphylococcus aureus clinical isolate 3 after 24 hr; settings: isolate 3, 24 h
Staphylococcus aureus [34] = experiment: Bactericidal activity against methicillin-resistant Staphylococcus aureus isolate 3 after 24 hr; settings: isolate 3, 24 h
Staphylococcus aureus [35] = experiment: Bactericidal activity against Staphylococcus aureus clinical isolate 1 after 24 hr; settings: isolate 1, 24 h
Pseudomonas aeruginosa = experiment: Antibacterial activity against Pseudomonas aeruginosa ATCC 27853 assessed as growth inhibition after 16 to 18 hr NCCLS agar dilution method
Escherichia coli = experiment: Antibacterial activity against Escherichia coli ATCC 25922 assessed as growth inhibition after 16 to 18 hr NCCLS agar dilution method

SMILES	MIC50 (Staphylococcus aureus [1])	MIC90 (Staphylococcus aureus [1])	MIC (Staphylococcus aureus [2])	MIC (Staphylococcus aureus [3])	MBC (Staphylococcus aureus [4])	MIC (Staphylococcus aureus [5])	MIC (Staphylococcus aureus [6])	MIC (Staphylococcus aureus [7])	MIC (Staphylococcus aureus [8])	MBC (Staphylococcus aureus [9])	MIC (Staphylococcus aureus [10])	MBC (Staphylococcus aureus [11])	MBC (Staphylococcus aureus [12])	MIC (Staphylococcus aureus [13])	MBC (Staphylococcus aureus [14])	MIC (Staphylococcus aureus [15])	MIC (Staphylococcus aureus [17])	MBC50 (Staphylococcus aureus [18])	MBC90 (Staphylococcus aureus [18])	MIC (Staphylococcus aureus [19])	further results
CCCCCCCCCC(=O)CC=O [HOUTTUYNIN]	64 µg/mL (≈ 323 µM)	64 µg/mL (≈ 323 µM)	64 µg/mL (≈ 323 µM)	64 µg/mL (≈ 323 µM)	128 µg/mL (≈ 645 µM)	64 µg/mL (≈ 323 µM)	16 µg/mL (≈ 80.7 µM)	16 µg/mL (≈ 80.7 µM)	32 µg/mL (≈ 161 µM)	128 µg/mL (≈ 645 µM)	64 µg/mL (≈ 323 µM)	64 µg/mL (≈ 323 µM)	128 µg/mL (≈ 645 µM)	32 µg/mL (≈ 161 µM)	64 µg/mL (≈ 323 µM)	16 µg/mL (≈ 80.7 µM)	64 µg/mL (≈ 323 µM)	64 µg/mL (≈ 323 µM)	128 µg/mL (≈ 645 µM)	16 µg/mL (≈ 80.7 µM)	MBC50 (60.1); MBC90 (60.2) (Staphylococcus aureus [16]; read-out: MIC50): 128 µg/mL (≈ 645 µM); MBC50 (60.1); MBC90 (60.2) (Staphylococcus aureus [16]; read-out: MIC90): 128 µg/mL (≈ 645 µM); MIC (Staphylococcus aureus [20]): 64 µg/mL (≈ 323 µM); MIC (Staphylococcus aureus [21]): 64 µg/mL (≈ 323 µM); MBC (Staphylococcus aureus [22]): 32 µg/mL (≈ 161 µM); MIC (Staphylococcus aureus [23]): 32 µg/mL (≈ 161 µM); MBC (Staphylococcus aureus [24]): 128 µg/mL (≈ 645 µM); MIC (Staphylococcus aureus [25]): 64 µg/mL (≈ 323 µM); MBC (Staphylococcus aureus [26]): 256 µg/mL (≈ 1290 µM); MIC (Staphylococcus aureus [27]): 16 µg/mL (≈ 80.7 µM); MBC (Staphylococcus aureus [28]): 32 µg/mL (≈ 161 µM); MBC (Staphylococcus aureus [29]): 128 µg/mL (≈ 645 µM); MBC (Staphylococcus aureus [30]): 64 µg/mL (≈ 323 µM); MBC (Staphylococcus aureus [31]): 128 µg/mL (≈ 645 µM); MIC50 (Staphylococcus aureus [32]): 16 µg/mL (≈ 80.7 µM); MIC90 (Staphylococcus aureus [32]): 16 µg/mL (≈ 80.7 µM); MBC (Staphylococcus aureus [33]): 128 µg/mL (≈ 645 µM); MBC (Staphylococcus aureus [34]): 64 µg/mL (≈ 323 µM); MBC (Staphylococcus aureus [35]): 64 µg/mL (≈ 323 µM)
C[C@H]1COc2c(N3CCN(C)CC3)c(F)cc3c(=O)c(C(=O)O)cn1c23.C[C@H]1COc2c(N3CCN(C)CC3)c(F)cc3c(=O)c(C(=O)O)cn1c23.O [LEVOFLOXACIN]	0.25 µg/mL	0.5 µg/mL	0.25 µg/mL	0.5 µg/mL	0.25 µg/mL	0.5 µg/mL	16 µg/mL	8 µg/mL	0.125 µg/mL	> 16 µg/mL	0.25 µg/mL	0.5 µg/mL	0.5 µg/mL	0.5 µg/mL	> 16 µg/mL	8 µg/mL	0.25 µg/mL	>16 µg/mL	>16 µg/mL	> 16 µg/mL	MIC (Pseudomonas aeruginosa): 0.5 µg/mL; MIC (Escherichia coli): 0.025 µg/mL; MIC (Staphylococcus aureus [20]): 0.25 µg/mL; MIC (Staphylococcus aureus [21]): 0.25 µg/mL; MBC (Staphylococcus aureus [22]): > 16 µg/mL; MIC (Staphylococcus aureus [23]): 0.25 µg/mL; MBC (Staphylococcus aureus [24]): 0.25 µg/mL; MIC (Staphylococcus aureus [25]): 0.25 µg/mL; MBC (Staphylococcus aureus [26]): 0.5 µg/mL; MIC (Staphylococcus aureus [27]): 16 µg/mL; MBC (Staphylococcus aureus [28]): > 16 µg/mL; MBC (Staphylococcus aureus [29]): 0.5 µg/mL; MBC (Staphylococcus aureus [30]): 0.25 µg/mL; MBC (Staphylococcus aureus [31]): 0.5 µg/mL; MIC50 (Staphylococcus aureus [32]): 16 µg/mL; MIC90 (Staphylococcus aureus [32]): > 16 µg/mL; MBC (Staphylococcus aureus [33]): 0.5 µg/mL; MBC (Staphylococcus aureus [34]): > 16 µg/mL; MBC (Staphylococcus aureus [35]): 0.25 µg/mL

— ChEMBL document CHEMBL3045868, “Synthesis and antibacterial activities of para-alkoxy phenyl--ketoaldehyde derivatives” (Med Chem Res, 2013)
